# Data reported in patent US20230036854A1, “HETEROCYCLIC SPIRO-COMPOUNDS AS AM2 RECEPTOR INHIBITORS” (THE UNIVERSITY OF SHEFFIELD, priority 2018, published 2023).
# Biological target: T1, AM2 receptor (1321N1 cells transfected with CALCRL+RAMP3) (Homo sapiens, UniProt O60896+Q16602)
# T1 construct: host or cells: 1321N1 cells
# Assay: AM2 receptor inhibition, LANCE cAMP agonist-antagonist competition assay
# Assay type: cell-based
# Details: inhibition of AM induced cAMP activation, read-out: AM2 D2 protocol: pIC50 (converted)
# Summary of the method: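 cAMP was quantified by LANCE TR-FRET after an EC50 challenge with adrenomedullin (15 min, room temperature) in CALCRL+RAMP3-transfected 1321N1 cells (2500/well) that had first been exposed to compound for 30 min. Buffer was pH 7.4 HBSS with HEPES and BSA. Forskolin defined 100% stimulation and vehicle 0%.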
# T1 sequence (Q16602 23-461): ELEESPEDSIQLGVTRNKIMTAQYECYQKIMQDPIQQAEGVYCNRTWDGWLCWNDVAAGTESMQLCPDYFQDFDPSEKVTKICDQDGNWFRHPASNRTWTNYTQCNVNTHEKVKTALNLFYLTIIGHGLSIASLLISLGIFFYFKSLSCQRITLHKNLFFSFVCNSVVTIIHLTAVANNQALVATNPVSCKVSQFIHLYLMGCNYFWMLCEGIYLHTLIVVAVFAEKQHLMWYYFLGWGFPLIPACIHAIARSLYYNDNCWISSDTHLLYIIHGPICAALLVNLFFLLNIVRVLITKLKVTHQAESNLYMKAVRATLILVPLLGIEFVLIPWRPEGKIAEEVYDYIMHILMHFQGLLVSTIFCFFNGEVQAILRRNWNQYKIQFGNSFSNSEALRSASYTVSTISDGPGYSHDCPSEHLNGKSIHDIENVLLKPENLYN
# T1 sequence (O60896 24-148): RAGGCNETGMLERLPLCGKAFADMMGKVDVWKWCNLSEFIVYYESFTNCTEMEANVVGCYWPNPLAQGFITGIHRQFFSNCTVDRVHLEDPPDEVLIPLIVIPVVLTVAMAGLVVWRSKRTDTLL
row,SMILES,IC50 [µM]
1,"CCC1(C(=O)N(CC(=O)Nc2ccc3c(c2)C[C@@]2(C3)C(=O)Nc3ncccc32)Cc2ccccc2CNC)CCN(C(=O)N2CCC(F)(F)CC2)CC1 [Example 107, (R)-1-(4,4-Difluoropiperidine-1-carbonyl)-4-ethyl-N-(2-((methylamino)methyl)benzyl)-N-(2-oxo-2-((2′-oxo-1,1′,2′,3-tetrahydrospiro[indene-2,3′-pyrrolo[2,3-b]pyridin]-5-yl)amino)ethyl)piperidine-4-carboxamide]",0.0575
2,"CCC1(C(=O)N(CC(=O)Nc2ccc3c(c2)C[C@@]2(C3)C(=O)Nc3ncccc32)Cc2ccccc2CNC)CCN(C(=O)COCCOCCOCCOCCOC)CC1 [Example 96, (R)-4-Ethyl-1-(2,5,8,11,14-pentaoxahexadecan-16-oyl)-N-(2-((methylamino)methyl)benzyl)-N-(2-oxo-2-((2′-oxo-1,1′,2′,3-tetrahydrospiro[indene-2,3′-pyrrolo[2,3-b]pyridin]-5-yl)amino)ethyl)piperidine-4-carboxamide]",0.0245
3,"CNCc1ccccc1CN(CC(=O)Nc1cc2c(cc1C)CC1(C2)C(=O)Nc2ncccc21)C(=O)C1(C)CCN(C(C)=O)CC1 (stereo not shown) [Example 129, Acetyl-4-methyl-N-(2-((5-methyl-2′-oxo-1,1′,2′,3-tetrahydrospiro[indene-2,3′-pyrrolo[2,3-b]pyridin]-6-yl)amino)-2-oxoethyl)-N-(2-((methylamino)methyl)benzyl)piperidine-4-carboxamide]",0.107
4,"CCNCc1ccccc1CN(CC(=O)Nc1ccc2c(c1)C[C@@]1(C2)C(=O)Nc2ncccc21)C(=O)C1(CC)CCN(C(C)=O)CC1 [Example 134, (R)-1-Acetyl-4-ethyl-N-(2-((ethylamino)methyl)benzyl)-N-(2-oxo-2-((2′-oxo-1,1′,2′,3-tetrahydrospiro[indene-2,3′-pyrrolo[2,3-b]pyridin]-5-yl)amino)ethyl)piperidine-4-carboxamide]",0.115
5,"CCC1(C(=O)N(CC(=O)Nc2ccc3c(c2)C[C@@]2(C3)C(=O)Nc3ncccc32)Cc2ccccc2CNC)CCN(C(=O)[C@H](N)C(C)C)CC1 [Example 80, 1-((R)-2-Amino-3-methylbutanoyl)-4-ethyl-N-(2-((methylamino)methyl)benzyl)-N-(2-oxo-2-(((R)-2′-oxo-1,1′,2′,3-tetrahydrospiro[indene-2,3′-pyrrolo[2,3-b]pyridin]-5-yl)amino)ethyl)piperidine-4-carboxamide]",0.0575
6,"CCC1(C(=O)N(CC(=O)Nc2ccc3c(c2)C[C@@]2(C3)C(=O)Nc3ncccc32)Cc2ccccc2CNC)CCN(C(=O)[C@H](N)c2ccccc2)CC1 [Example 81, 1-((R)-2-Amino-2-phenylacetyl)-4-ethyl-N-(2-((methylamino)methyl)benzyl)-N-(2-oxo-2-(((R)-2′-oxo-1,1′,2′,3-tetrahydrospiro[indene-2,3′-pyrrolo[2,3-b]pyridin]-5-yl)amino)ethyl)piperidine-4-carboxamide]",0.00234
7,"CCC1(C(=O)N(CC(=O)Nc2ccc3c(c2)C[C@@]2(C3)C(=O)Nc3ncccc32)Cc2ccccc2CNC)CCN(C(=O)c2ccn[nH]2)CC1 [Example 84, (R)-4-Ethyl-N-(2-((methylamino)methyl)benzyl)-N-(2-oxo-2-((2′-oxo-1,1′,2′,3-tetrahydrospiro[indene-2,3′-pyrrolo[2,3-b]pyridin]-5-yl)amino)ethyl)-1-(1H-pyrazole-5-carbonyl)piperidine-4-carboxamide]",0.00355
8,"CNCc1ccccc1CN(CC(=O)Nc1ccc2c(c1)C[C@@]1(C2)C(=O)Nc2ncccc21)C(=O)C1(C(C)C)CCN(C(C)=O)CC1 [Example 123, (R)-1-Acetyl-4-isopropyl-N-(2-((methylamino)methyl)benzyl)-N-(2-oxo-2-((2′-oxo-1,1′,2′,3-tetrahydrospiro[indene-2,3′-pyrrolo[2,3-b]pyridin]-5-yl)amino)ethyl)piperidine-4-carboxamide]",0.214
9,"CCC1(C(=O)N(CC(=O)Nc2ccc3c(c2)C[C@@]2(C3)C(=O)Nc3ncccc32)Cc2ccccc2CNC)CCN(C(=O)N2CCCCC2)CC1 [Example 104, (R)-4-Ethyl-N-(2-((methylamino)methyl)benzyl)-N-(2-oxo-2-((2′-oxo-1,1′,2′,3-tetrahydrospiro[indene-2,3′-pyrrolo[2,3-b]pyridin]-5-yl)amino)ethyl)-1-(piperidine-1-carbonyl) piperidine-4-carboxamide]",0.107
10,"CCC1(C(=O)N(CC(=O)Nc2ccc3c(c2)C[C@@]2(C3)C(=O)Nc3ncccc32)Cc2ccccc2CNC(C)C)CCN(C(C)=O)CC1 [Example 141, (R)-1-Acetyl-4-ethyl-N-(2-((isopropylamino)methyl)benzyl)-N-(2-oxo-2-((2′-oxo-1,1′,2′,3-tetrahydrospiro[indene-2,3′-pyrrolo[2,3-b]pyridin]-5-yl)amino)ethyl)piperidine-4-carboxamide]",0.102

# The next lines start with the values.
row,IC50 [µM],SMILES
1,0.0105,"CCC1(C(=O)N(CC(=O)Nc2ccc3c(c2)C[C@@]2(C3)C(=O)Nc3ncccc32)Cc2ccccc2CNC)CCS(=O)(=O)CC1 [Example 147, (R)-4-Ethyl-N-(2-((methylamino)methyl)benzyl)-N-(2-oxo-2-((2′-oxo-1,1′,2′,3-tetrahydrospiro[indene-2,3′-pyrrolo[2,3-b]pyridin]-5-yl)amino)ethyl)tetrahydro-2H-thiopyran-4-carboxamide 1,1-dioxide]"
2,0.00229,"CNCc1ccccc1CN(CC(=O)Nc1ccc2c(c1)CC1(C2)C(=O)Nc2ncccc21)C(=O)C1(C)CCN(C(=O)c2ccncc2)CC1 (stereo not shown) [Example 6, 1-Isonicotinoyl-4-methyl-N-(2-((methylamino)methyl)benzyl)-N-(2-oxo-2-((2′-oxo-1,1′,2′,3-tetrahydrospiro[indene-2,3′-pyrrolo[2,3-b]pyridin]-5-yl)amino)ethyl)piperidine-4-carboxamide]"
3,0.0302,"CCC1(C(=O)N(CC(=O)Nc2ccc3c(c2)C[C@@]2(C3)C(=O)Nc3ncccc32)Cc2ccccc2CNC)CCN(C(=O)C(C)(C)C)CC1 [Example 69, 1-(2,2-Dimethylpropanoyl)-4-ethyl-N-[[2-(methylaminomethyl)phenyl]methyl]-N-[2-oxo-2-[[(3R)-2-oxospiro[1H-pyrrolo[2,3-b]pyridine-3,2′-indane]-5′-yl]amino]ethyl]piperidine-4-carboxamide]"
4,0.00646,"CNCc1ccccc1CN(CC(=O)Nc1ccc2c(c1)C[C@@]1(C2)C(=O)Nc2ncccc21)C(=O)C1(C)CCN(CCO)CC1 [Example 42, (R)-1-(2-Hydroxyethyl)-4-methyl-N-(2-((methylamino)methyl)benzyl)-N-(2-oxo-2-((2′-oxo-1,1′,2′,3-tetrahydrospiro[indene-2,3′-pyrrolo[2,3-b]pyridin]-5-yl)amino)ethyl)piperidine-4-carboxamide]"
5,0.0145,"CNCc1ccccc1CN(CC(=O)Nc1ccc2c(c1)C[C@@]1(C2)C(=O)Nc2ncccc21)C(=O)C1(C)CCN(c2ccccc2)CC1 [Example 63, (R)-4-Methyl-N-(2-((methylamino)methyl)benzyl)-N-(2-oxo-2-((2′-oxo-1,1′,2′,3-tetrahydrospiro[indene-2,3′-pyrrolo[2,3-b]pyridin]-5-yl)amino)ethyl)-1-phenylpiperidine-4-carboxamide]"
6,0.00115,CNCc1ccccc1CN(CC(=O)Nc1ccc2c(c1)CC1(C2)C(=O)Nc2ncccc21)C(=O)C1(C)CCN(C(=O)CCN(C)C)CC1 (stereo not shown) [Example 31]
7,0.00234,"CNCc1ccccc1CN(CC(=O)Nc1ccc2c(c1)CC1(C2)C(=O)Nc2ncccc21)C(=O)C1(C)CCN(C(=O)N2CCCC2)CC1 (stereo not shown) [Example 51, 4-Methyl-N-[[2-(methylaminomethyl)phenyl]methyl]-N-[2-oxo-2-[(2-oxospiro[1H-pyrrolo[2,3-b]pyridine-3,2′-indane]-5′-yl)amino]ethyl]-1-(pyrrolidine-1-carbonyl)piperidine-4-carboxamide]"
8,0.0011,"CNCc1ccccc1CN(CC(=O)Nc1ccc2c(c1)C[C@@]1(C2)C(=O)Nc2ncccc21)C(=O)C1(C)CCN(CCOC)CC1 [Example 41, (R)-1-(2-Methoxyethyl)-4-methyl-N-(2-((methylamino)methyl)benzyl)-N-(2-oxo-2-((2′-oxo-1,1′,2′,3-tetrahydrospiro[indene-2,3′-pyrrolo[2,3-b]pyridin]-5-yl)amino)ethyl)piperidine-4-carboxamide]"
9,0.00151,"CNCc1ccccc1CN(CC(=O)Nc1ccc2c(c1)CC1(C2)C(=O)Nc2ncccc21)C(=O)C1(C)CCN(C(=O)COC)CC1 (stereo not shown) [Example 21, 1-(2-Methoxyacetyl)-4-methyl-N-(2-((methylamino)methyl)benzyl)-N-(2-oxo-2-((2′-oxo-1,1′,2′,3-tetrahydrospiro[indene-2,3′-pyrrolo[2,3-b]pyridin]-5-yl)amino)ethyl)piperidine-4-carboxamide]"
10,0.02,"CCC1(C(=O)N(CC(=O)Nc2ccc3c(c2)C[C@@]2(C3)C(=O)Nc3ncccc32)Cc2ccccc2CNC)CCN(C(=O)OC)CC1 [Example 116, (R)-Methyl 4-ethyl-4-((2-((methylamino)methyl)benzyl)(2-oxo-2-((2′-oxo-1,1′,2′,3-tetrahydrospiro[indene-2,3′-pyrrolo[2,3-b]pyridin]-5-yl)amino)ethyl)carbamoyl)piperidine-1-carboxylate]"
11,0.0759,"CNCc1ccccc1CN(CC(=O)Nc1ccc2c(c1)C[C@@]1(C2)C(=O)Nc2ncccc21)C(=O)C1(C)CN(C(C)=O)C1 [Example 144, (R)-1-Acetyl-3-methyl-N-(2-((methylamino)methyl)benzyl)-N-(2-oxo-2-((2′-oxo-1,1′,2′,3-tetrahydrospiro[indene-2,3′-pyrrolo[2,3-b]pyridin]-5-yl)amino)ethyl)azetidine-3-carboxamide]"
12,0.002,"CNCc1ccccc1CN(CC(=O)Nc1ccc2c(c1)CC1(C2)C(=O)Nc2ncccc21)C(=O)C1(C)CCN(C(=O)c2cccnc2)CC1 (stereo not shown) [Example 14, 4-Methyl-N-(2-((methylamino)methyl)benzyl)-1-nicotinoyl-N-(2-oxo-2-((2′-oxo-1,1′,2′,3-tetrahydrospiro[indene-2,3′-pyrrolo[2,3-b]pyridin]-5-yl)amino)ethyl)piperidine-4-carboxamide]"
